This assay relates to human dermal papilla cells. Briefly: Promotion of proliferation of human dermal papilla cells (CellTiter-Glo Luminescent cell viability assay). The format is cell-based. The settings on record: human dermal papilla cells (ScienCell, 2499); drug 0 to 30 μM; 48 hours; CellTiter-Glo luminescence; compared to DMSO-treated control group. As to the method: The effect of promoting cell proliferation by the drug was analyzed using human dermal papilla cells (ScienCell, 2499). Human dermal papilla cells cultured using Mesenchymal Stem Cell Medium (ScienCell, 7501) medium were seeded at a density of 3×10^3 cells/well and in a volume of 100 μl in a 96-well plate, incubated overnight at 37° C. and 5% CO2, treated with the drug at different concentrations ranging from 0 to 30 μM in a volume of 100 μL, and incubated at 37° C. and 5% CO2 for 48 hours. CellTiter-Glo Luminescent cell viability assay was performed according to the manufacturer's protocol (Promega, G7573) to detect cell proliferation. Luminescence was measured using an Envision 2102 multilabeled reader (PerkinElmer) equipment, and the cell proliferation rate was analyzed by the activity of the drug-treated group compared to the DMSO-treated group (control group), which is a solvent of the drug.
In general terms: ATP-based viability assays read luminescence as a measure of living cells.

Results on 37 compounds are retold here after patent US12583852B2, “Heterocycle derivative” (JW PHARMACEUTICAL CORPORATION, priority 2018, dated 2026).

Take `Nc1n[nH]c2nc(Nc3cccc(C(F)(F)F)c3F)c(F)cc12` [Compound 64, 5-fluoro-N6-(2-fluoro-3-(trifluoromethyl)phenyl)-1H-pyrazolo[3,4-b]pyridine-3,6-diamine]: the “Maximum DP cell proliferation (%)” value amounted to 16%. Regarding `CNc1n[nH]c2nc(Nc3cccc4c3CCC4)c(F)cc12` [Compound 102, 5-fluoro-N6-indan-4-yl-N3-methyl-1H-pyrazolo[3,4-b]pyridine-3,6-diamine], the “Maximum DP cell proliferation (%)” value is on record as 13%. In the case of `Nc1n[nH]c2nc(Nc3c(O)ccc4c3CCC4)c(F)cc12` [Compound 57, 4-[(3-amino-5-fluoro-1H-pyrazolo[3,4-b]pyridin-6-yl)amino]indan-5-ol] it was 3.1%; in that of `Cc1ccc(Cl)c(Nc2nc3[nH]nc(N)c3cc2F)c1F` [Compound 76, N6-(6-chloro-2-fluoro-3-methylphenyl)-5-fluoro-1H-pyrazolo[3,4-b]pyridine-3,6-diamine], 4%; in that of `Cc1ccc(Nc2nc3[nH]nc(N)c3cc2F)cc1C` [Compound 18, N6-(3,4-dimethylphenyl)-5-fluoro-1H-pyrazolo[3,4-b]pyridine-3,6-diamine], 7.8%.

`Nc1n[nH]c2nc(Nc3cccc4c3CC=C4)c(F)cc12` [Compound 48, 5-fluoro-N6-(1H-inden-7-yl)-1H-pyrazolo[3,4-b]pyridine-3,6-diamine]: the “Maximum DP cell proliferation (%)” value is listed as 11%. In the case of `Nc1n[nH]c2nc(Nc3cccc4c3COC4)c(F)cc12` [Compound 9, N6-(1,3-dihydroisobenzofuran-4-yl)-5-fluoro-1H-pyrazolo[3,4-b]pyridine-3,6-diamine] it was 2.6%; in that of `CC(C)(C)c1cccc(Nc2nc3[nH]nc(N)c3cc2F)c1` [Compound 5, N6-(3-(tert-butyl)phenyl)-5-fluoro-1H-pyrazolo[3,4-b]pyridine-3,6-diamine], 7.4%. The value for `N#Cc1cccc(Nc2nc3[nH]nc(N)c3cc2F)c1F` [Compound 79, 3-[(3-amino-5-fluoro-1H-pyrazolo[3,4-b]pyridin-6-yl)amino]-2-fluoro-benzonitrile] was 3.6%.

`Fc1cc2c(Br)n[nH]c2nc1Nc1c(Br)cc(Br)c2c1CCC2` [Example 119, 3-bromo-N-(5,7-dibromoindan-4-yl)-5-fluoro-1H-pyrazolo[3,4-b]pyridin-6-amine]: the “Maximum DP cell proliferation (%)” value stood at 1.3%.

Consider `O=C(Nc1n[nH]c2nc(Nc3cccc4c3CCC4)c(F)cc12)C1CCCC1` [Compound 89, N-(6-((2,3-dihydro-1H-inden-4-yl)amino)-5-fluoro-1H-pyrazolo[3,4-b]pyridin-3-yl)cyclopentanecarboxamide], for which the “Maximum DP cell proliferation (%)” value is on record as 0.4%.

For the compound `O=C1c2ccccc2C(=O)N1c1nn(C2CCCCO2)c2nc(Nc3cccc4c3CCC4)c(F)cc12` (stereo not shown) [Compound 97, 2-(6-((2,3-dihydro-1H-inden-4-yl)amino)-5-fluoro-1-(tetrahydro-2H-pyran-2-yl)-1H-pyrazolo[3,4-b]pyridin-3-yl)isoindoline-1,3-dione], the “Maximum DP cell proliferation (%)” value was determined as 10%. Take `Nc1n[nH]c2nc(Nc3cccc4c3CCCC4)cnc12` [Compound 45, N6-tetralin-5-yl-1H-pyrazolo[3,4-b]pyrazine-3,6-diamine]: the “Maximum DP cell proliferation (%)” value came out at 7%. The value for `Nc1n[nH]c2nc(Nc3cccc4c3CCC4)ccc12` [Compound 4, N6-(2,3-dihydro-1H-inden-4-yl)-1H-pyrazolo[3,4-b]pyridine-3,6-diamine] was 4%; that for `CC(=O)Nc1n[nH]c2nc(Nc3cccc4c3CCC4)c(F)cc12` [Compound 92, N-(6-((2,3-dihydro-1H-inden-4-yl)amino)-5-fluoro-1H-pyrazolo[3,4-b]pyridin-3-yl)acetamide] was 8%; that for `CCOC(=O)c1cc2c(N)n[nH]c2nc1Nc1cccc2c1CCC2` [Compound 14, ethyl 3-amino-6-((2,3-dihydro-1H-inden-4-yl)amino)-1H-pyrazolo[3,4-b]pyridine-5-carboxylate] was 5.3%.

With `Cc1ccc2cccc(Nc3nc4[nH]nc(N)c4cc3F)c2c1` [Compound 31, 5-fluoro-N6-(7-methyl-1-naphthyl)-1H-pyrazolo[3,4-b]pyridine-3,6-diamine], the “Maximum DP cell proliferation (%)” value turned out to be 3.2%.

Consider `Nc1n[nH]c2nc(Nc3cccc(F)c3C(F)(F)F)c(F)cc12` [Compound 62, 5-fluoro-N6-(3-fluoro-2-(trifluoromethyl)phenyl)-1H-pyrazolo[3,4-b]pyridine-3,6-diamine], for which the “Maximum DP cell proliferation (%)” value was determined as 6.2%. In the case of `Nc1n[nH]c2nc(Nc3cccc(C(F)F)c3F)c(F)cc12` [Compound 61, N6-(3-(difluoromethyl)-2-fluorophenyl)-5-fluoro-1H-pyrazolo[3,4-b]pyridine-3,6-diamine] it was 11%; in that of `Nc1n[nH]c2nc(Nc3cccc4c3CNC4=O)c(F)cc12` [Compound 53, 4-((3-amino-5-fluoro-1H-pyrazolo[3,4-b]pyridin-6-yl)amino)isoindolin-1-one], 2.4%. In the case of `Nc1n[nH]c2nc(Nc3cccc4c3CCC4)nc(Cl)c12` [Example 116, 4-chloro-N6-indan-4-yl-3a,4-didehydro-1H-pyrazolo[3,4-d]pyrimidine-3,6-diamine] it was 5.9%. The value for `Nc1n[nH]c2nc(Nc3cccc(C(F)F)c3F)cnc12` [Compound 39, N6-[3-(difluoromethyl)-2-fluoro-phenyl]-1H-pyrazolo[3,4-b]pyrazine-3,6-diamine] was 7.9%.

`COC(=O)CNc1n[nH]c2nc(Nc3cccc4c3CCC4)c(F)cc12` [Compound 101, methyl (6-((2,3-dihydro-1H-inden-4-yl)amino)-5-fluoro-1H-pyrazolo[3,4-b]pyridin-3-yl)glycinate]: the “Maximum DP cell proliferation (%)” value is 9.7%. The value for `CC(=O)Cn1nc(N)c2cc(F)c(Nc3cccc4c3CCC4)nc21` [Compound 94, 1-(3-amino-6-((2,3-dihydro-1H-inden-4-yl)amino)-5-fluoro-1H-pyrazolo[3,4-b]pyridin-1-yl)propan-2-one] was 18%; that for `Nc1n[nH]c2nc(Nc3ccc(F)c(C(F)(F)F)c3F)c(F)cc12` [Compound 80, N6-(2,4-difluoro-3-(trifluoromethyl)phenyl)-5-fluoro-1H-pyrazolo[3,4-b]pyridine-3,6-diamine] was 6%. Regarding `Nc1n[nH]c2nc(Nc3cccc(C(F)(F)F)c3F)ncc12` [Example 117, N6-[2-fluoro-3-(trifluoromethyl)phenyl]-1H-pyrazolo[3,4-d]pyrimidine-3,6-diamine], the “Maximum DP cell proliferation (%)” value was 6.7%. The value for `Fc1cc2cn[nH]c2nc1Nc1cccc2c1CCC2` [Compound 104, N-(2,3-dihydro-1H-inden-4-yl)-5-fluoro-1H-pyrazolo[3,4-b]pyridin-6-amine] was 15%; that for `CC1(C)Cc2cccc(Nc3nc4[nH]nc(N)c4cc3F)c2C1` [Compound 52, N6-(2,2-dimethyl-2,3-dihydro-1H-inden-4-yl)-5-fluoro-1H-pyrazolo[3,4-b]pyridine-3,6-diamine] was 11%.

Regarding `Cc1c(Cl)c(Nc2cccc3c2CCC3)nc2[nH]nc(N)c12` [Compound 17, 5-chloro-N6-(2,3-dihydro-1H-inden-4-yl)-4-methyl-1H-pyrazolo[3,4-b]pyridine-3,6-diamine], the “Maximum DP cell proliferation (%)” value came to 6%. With `Nc1n[nH]c2nc(Nc3cccc4c3CC(=O)N4)c(F)cc12` [Compound 54, 4-((3-amino-5-fluoro-1H-pyrazolo[3,4-b]pyridin-6-yl)amino)indolin-2-one], the “Maximum DP cell proliferation (%)” value came to 4.4%.

In the case of `Nc1n[nH]c2nc(Nc3cccc4c3CCC4)c(C(=O)O)cc12` [Compound 16, 3-amino-6-((2,3-dihydro-1H-inden-4-yl)amino)-1H-pyrazolo[3,4-b]pyridine-5-carboxylic acid], the “Maximum DP cell proliferation (%)” value was determined as 6.1%.

As to `Nc1nn(Cc2ccccc2)c2nc(Nc3cccc4c3CCC4)c(F)cc12` [Compound 93, 1-benzyl-N6-(2,3-dihydro-1H-inden-4-yl)-5-fluoro-1H-pyrazolo[3,4-b]pyridine-3,6-diamine], the “Maximum DP cell proliferation (%)” value amounted to 2.8%.

Turning to `Nc1n[nH]c2nc(Nc3cccc4ncccc34)c(F)cc12` [Compound 60, 5-fluoro-N6-(quinolin-5-yl)-1H-pyrazolo[3,4-b]pyridine-3,6-diamine], the “Maximum DP cell proliferation (%)” value is 6.1%. With `Cn1nc(N)c2cc(F)c(Nc3cccc4c3CCC4)nc21` [Compound 90, N6-(2,3-dihydro-1H-inden-4-yl)-5-fluoro-1-methyl-1H-pyrazolo[3,4-b]pyridine-3,6-diamine], the “Maximum DP cell proliferation (%)” value is recorded as 13%.

Regarding `CC(=O)n1nc(N)c2cc(F)c(Nc3cccc4c3CCC4)nc21` [Compound 88, 1-(3-amino-6-((2,3-dihydro-1H-inden-4-yl)amino)-5-fluoro-1H-pyrazolo[3,4-b]pyridin-1-yl)ethan-1-one], the “Maximum DP cell proliferation (%)” value came to 8%.

`Cc1cc2c(c(Nc3nc4[nH]nc(N)c4cc3F)c1)CCC2` [Compound 27, 5-fluoro-N6-(6-methyl-2,3-dihydro-1H-inden-4-yl)-1H-pyrazolo[3,4-b]pyridine-3,6-diamine]: the “Maximum DP cell proliferation (%)” value is reported as 6.8%.

As to `Nc1n[nH]c2nc(Nc3c4c(cc5c3CCC5)CCC4)c(F)cc12` [Compound 29, 5-fluoro-N6-(1,2,3,5,6,7-hexahydro-s-indacen-4-yl)-1H-pyrazolo[3,4-b]pyridine-3,6-diamine], the “Maximum DP cell proliferation (%)” value is 4.6%.
